Source: publication PMC10269819, “Mitochondrial ADP/ATP Carrier 1 Is Important for the Growth of Toxoplasma Tachyzoites” (Microbiology Spectrum, 2023)

Tests used:
Assay type in all cases: cell-based
[1] = target: T1, TgAAC1 (Toxoplasma gondii, UniProt Q9BJ36); assay: competition with [α-32P]ATP uptake by intact induced E. coli cells; conditions: unlabelled competitor 2.5 μM (100-fold excess); 25 nM [α-32P]ATP; 10 min; 50 mM potassium phosphate pH 7.0; 30 °C
T1 construct: full-length cDNA (318 residues) in pET-16b, HA-tagged; expressed in membrane of intact E. coli BL21(DE3)
T1 sequence (Q9BJ36 1-318): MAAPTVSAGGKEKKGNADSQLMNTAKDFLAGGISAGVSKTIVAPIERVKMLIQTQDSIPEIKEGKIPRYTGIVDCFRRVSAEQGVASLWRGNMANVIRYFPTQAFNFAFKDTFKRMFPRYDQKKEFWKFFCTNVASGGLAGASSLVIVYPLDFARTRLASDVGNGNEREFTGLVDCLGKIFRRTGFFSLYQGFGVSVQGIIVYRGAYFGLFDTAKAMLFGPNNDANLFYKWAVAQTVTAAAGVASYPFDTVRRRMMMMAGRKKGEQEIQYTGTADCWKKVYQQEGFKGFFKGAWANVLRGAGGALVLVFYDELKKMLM

[2] = target: T1, TgAAC1; assay: as above; conditions: unlabelled competitor 2.5 μM (100-fold excess); 25 nM [α-32P]ATP; 10 min; 50 mM potassium phosphate pH 7.0; 30 °C; remark: listed apart in the source
[3] = target: T1, TgAAC1; assay: uptake of [α-32P]ATP by intact induced E. coli cells; conditions: labelled compound; 25 nM [α-32P]ATP; 50 mM potassium phosphate pH 7.0; 30 °C; uninduced cells as control

Nc1ncnc2c1ncn2[C@@H]1O[C@H](COP(=O)(O)OP(=O)(O)O)[C@@H](O)[C@H]1O [ADP]
% reduction of [α-32P]-ATP transport at 2.5 μM [1]: ~ approximately 90%

Nc1ncnc2c1ncn2[C@@H]1O[C@H](COP(=O)(O)O)[C@@H](O)[C@H]1O [AMP]
% reduction of [α-32P]-ATP uptake at 2.5 μM [2]: 40%

Nc1ncnc2c1ncn2[C@@H]1O[C@H](COP(=O)(O)OP(=O)(O)OP(=O)(O)O)[C@@H](O)[C@H]1O [ATP]
% reduction of [α-32P]-ATP transport at 2.5 μM [1]: ~ approximately 90%
uptake of [α-32P]ATP by intact induced E. coli cells [3]: TgAAC1 could take up more ATP after induction compared to the noninduced group

Nc1ccn([C@@H]2O[C@H](COP(=O)(O)OP(=O)(O)OP(=O)(O)O)[C@@H](O)[C@H]2O)c(=O)n1 [CTP]
% reduction of [α-32P]-ATP uptake at 2.5 μM [2]: 45%
